Measured values taken from patent US9302999B2, “Substituted triazoles as herbicides” (E. I. DU PONT DE NEMOURS AND COMPANY, priority 2012, dated 2016).

Experiments:
Type in all cases: in vivo
[1] = system: pigweed (Amaranthus retroflexus); test: Test A pre-/postemergence: pigweed; conditions: for Pigweed plant response rating: Postemergence; for Plant response rating, Pigweed: Preemergence
Method in brief: (§1)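 Soil medium was loam blended with sand; treatments pre- and postemergence were applied concurrently, postemergence at one- to two-leaf stage. Approximately ten days in greenhouse preceded visual comparison with untreated controls, scored 0 (no effect) to 100 (complete control).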

rice (Oryza sativa) = test: Test C flooded paddy test: rice; conditions: Flood (flooded paddy test), visual rating after 13 to 15 days, scale 0 to 100 (0 no effect, 100 complete control)
Text: (§2) Plant species in the flooded paddy test consisted of rice (Oryza sativa), sedge, umbrella (small-flower umbrella sedge, Cyperus difformis), ducksalad (Heteranthera limosa) and barnyardgrass (Echinochloa crus-galli) grown to the 2-leaf stage for testing. At time of treatment, test pots were flooded to 3 cm above the soil surface, treated by application of test compounds directly to the paddy water, and then maintained at that water depth for the duration of the test.
(§3) Treated plants and controls were maintained in a greenhouse for 13 to 15 days, after which time all species were compared to controls and visually evaluated. Plant response ratings, summarized in Table C, are based on a scale of 0 to 100 where 0 is no effect and 100 is complete control. A dash (-) response means no test result.

[2] = system: foxtail, giant (giant foxtail, Setaria faberii); test: Test A pre-/postemergence: foxtail, giant; conditions: for Foxtail, Giant plant response rating: Postemergence; for Plant response rating, Foxtail, Giant: Preemergence
Method in brief: as §1

[3] = system: sedge, umbrella (small-flower umbrella sedge, Cyperus difformis); test: Test C flooded paddy test: sedge, umbrella; conditions: Flood (flooded paddy test), visual rating after 13 to 15 days, scale 0 to 100 (0 no effect, 100 complete control)
Method in brief: (§4)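 Plants at 2-leaf stage in pots flooded 3 cm above soil; compounds applied directly into the paddy water, depth maintained. Visual rating against controls after 13–15 days in greenhouse, scale 0 (no effect) to 100 (complete control).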

corn (Zea mays) = test: Test A pre-/postemergence: corn; conditions: for Corn plant response rating: Postemergence; for Plant response rating, Corn: Preemergence
Method in brief: as §1

[4] = system: barnyardgrass (Echinochloa crus-galli); test: Test C flooded paddy test: barnyardgrass; conditions: Flood (flooded paddy test), visual rating after 13 to 15 days, scale 0 to 100 (0 no effect, 100 complete control)
Method in brief: as §4

[5] = system: wheat (Triticum aestivum); test: Test A pre-/postemergence: wheat; conditions: for Wheat plant response rating: Postemergence; for Plant response rating, Wheat: Preemergence
Method in brief: as §1

[6] = system: crabgrass, large (large crabgrass, Digitaria sanguinalis); test: Test A pre-/postemergence: crabgrass, large; conditions: for Crabgrass, Large plant response rating: Postemergence; for Plant response rating, Crabgrass, Large: Preemergence
Method in brief: as §1

[7] = system: barnyardgrass (Echinochloa crus-galli); test: Test A pre-/postemergence: barnyardgrass; conditions: for Barnyardgrass plant response rating: Postemergence; for Plant response rating, Barnyardgrass: Preemergence
Method in brief: as §1

[8] = system: velvetleaf (Abutilon theophrasti); test: Test A pre-/postemergence: velvetleaf; conditions: for Velvetleaf plant response rating: Postemergence; for Plant response rating, Velvetleaf: Preemergence
Method in brief: as §1

[9] = system: ducksalad (Heteranthera limosa); test: Test C flooded paddy test: ducksalad; conditions: Flood (flooded paddy test), visual rating after 13 to 15 days, scale 0 to 100 (0 no effect, 100 complete control)
Text: as §2, §3

[10] = system: morningglory (Ipomoea spp.); test: Test A pre-/postemergence: morningglory; conditions: for Morningglory plant response rating: Postemergence; for Plant response rating, Morningglory: Preemergence
Method in brief: as §1

[11] = 125 g ai/ha, 0 to 100 scale, 0 is no effect, 100 is complete control
[12] = 500 g ai/ha, visual rating on 0 to 100 scale (0 no effect, 100 complete control), approximately ten days
[13] = 125 g ai/ha, 0 to 100 scale (0 no effect, 100 complete control)
[14] = 500 g ai/ha, 0 to 100 scale, 0 is no effect, 100 is complete control

SMILES | Pigweed plant response rating [1, 11] | Pigweed plant response rating [1, 12] | Plant response rating, Pigweed [1, 13] | Plant response rating, Pigweed [1, 14] | Plant response rating, Rice (rice (Oryza sativa); 62 g ai/ha) | Plant response rating, Rice (rice (Oryza sativa); 250 g ai/ha) | Foxtail, Giant plant response rating [2, 11] | Foxtail, Giant plant response rating [2, 12] | Plant response rating, Foxtail, Giant [2, 13] | Plant response rating, Foxtail, Giant [2, 14] | Plant response rating, Sedge, Umbrella ([3]; 62 g ai/ha) | Plant response rating, Sedge, Umbrella ([3]; 250 g ai/ha) | Corn plant response rating (corn (Zea mays); [11]) | Corn plant response rating (corn (Zea mays); [12]) | Plant response rating, Corn (corn (Zea mays); [13]) | Plant response rating, Corn (corn (Zea mays); [14]) | Plant response rating, Barnyardgrass ([4]; 62 g ai/ha) | Plant response rating, Barnyardgrass ([4]; 250 g ai/ha) | Wheat plant response rating [5, 11] | Wheat plant response rating [5, 12] | also measured
Cc1nn(-c2ccc(C(F)(F)F)cc2)nc1Cn1c(Cl)nc(C(F)(F)F)c1Cl [Compound 11] | 0 | 20 | 0 | 0 | 0 | 0 | 0 | 0 | 0 | 0 | 0 | 0 | 0 | 0 | 0 | 0 | 0 | 0 | 0 | 0 | Plant response rating, Wheat [5, 13]: 0; Plant response rating, Wheat [5, 14]: 0; Crabgrass, Large plant response rating [6, 11]: 0; Crabgrass, Large plant response rating [6, 12]: 0; Plant response rating, Crabgrass, Large [6, 13]: 0; Plant response rating, Crabgrass, Large [6, 14]: 0; Barnyardgrass plant response rating [7, 11]: 0; Barnyardgrass plant response rating [7, 12]: 0; Plant response rating, Barnyardgrass [7, 13]: 0; Plant response rating, Barnyardgrass [7, 14]: 0; Velvetleaf plant response rating [8, 11]: 0; Velvetleaf plant response rating [8, 12]: 0; Plant response rating, Velvetleaf [8, 13]: 0; Plant response rating, Velvetleaf [8, 14]: 0; Plant response rating, Ducksalad ([9]; 62 g ai/ha): 0; Plant response rating, Ducksalad ([9]; 250 g ai/ha): 0; Morningglory plant response rating [10, 11]: 0; Morningglory plant response rating [10, 12]: 0; Plant response rating, Morningglory [10, 13]: 0; Plant response rating, Morningglory [10, 14]: 0
Cc1nn(-c2ccc(C(F)(F)F)cc2)nc1Cn1cnc(C(F)(F)F)c1Cl [Compound 13] | 0 | 0 | 0 | 0 | 0 | 0 | 0 | 10 | 0 | 0 | 0 | 0 | 0 | 0 | 0 | 0 | 0 | 0 | 0 | 0 | Plant response rating, Wheat [5, 13]: 0; Plant response rating, Wheat [5, 14]: 0; Crabgrass, Large plant response rating [6, 11]: 0; Crabgrass, Large plant response rating [6, 12]: 0; Plant response rating, Crabgrass, Large [6, 13]: 0; Plant response rating, Crabgrass, Large [6, 14]: 0; Barnyardgrass plant response rating [7, 11]: 0; Barnyardgrass plant response rating [7, 12]: 0; Plant response rating, Barnyardgrass [7, 13]: 0; Plant response rating, Barnyardgrass [7, 14]: 0; Velvetleaf plant response rating [8, 11]: 0; Velvetleaf plant response rating [8, 12]: 0; Plant response rating, Velvetleaf [8, 13]: 0; Plant response rating, Velvetleaf [8, 14]: 0; Plant response rating, Ducksalad ([9]; 62 g ai/ha): 0; Plant response rating, Ducksalad ([9]; 250 g ai/ha): 0; Morningglory plant response rating [10, 11]: 10; Morningglory plant response rating [10, 12]: 10; Plant response rating, Morningglory [10, 13]: 0; Plant response rating, Morningglory [10, 14]: 0
